From patent publication US20240115577A1, “SMALL MOLECULE REGULATORS OF ALVEOLAR TYPE 2 CELL PROLIFERATION FOR THE TREATMENT OF PULMONARY DISEASES” (THE SCRIPPS RESEARCH INSTITUTE, priority 2021, published 2024)
Entries after “also recorded” stand apart in the source; their conditions may differ. Where two headings read alike, the source gives them in different places.

Key:
Primary human AEC2s = assay: AEC2 proliferation assay (Ki67 high content imaging); type: cell-based; settings: for EC50: Homo sapiens
Method: To identify small molecules capable of proliferating AEC2s, as disclosed herein, we first established a culture system with primary human small airway epithelial cells (SAECs) from a commercial source.
AEC2 proliferation assay. Primary human AEC2s were plated at a density of 1,500 cells per well in black 384-well plates (Greiner) coated with 10 ug/mL. Laminin (Life Technologies) in 50 μL of Small Airway Epithelial Cell Growth Medium (Lonza) without EGF, retinoic acid and with 5% BPE. 100 nL of compound dissolved in DMSO was then delivered using a Biomek FX instrument (Beckman Coulter) fitted with a pintool head (V&P Scientific).

[1] = tested on: acute lung injury induced by LPS; assay: LPS-induced acute lung injury (ALI) model; type: in vivo, mouse; settings: for minimal efficacious dose in LPS lung injury model / Efficacy in LPS acute lung injury model, result in words: oral; for Efficacy in LPS acute lung injury model, result in words: histological scoring, BALF protein
Method: Experimental methods of Acute Lung Injury (ALI) model
LPS from E. coli […] (Sigma) was used to induce acute lung injury in mice. Body weight matched (19 gram˜22 gram) female C57BL/6J mice at 9-11 weeks of age were selected to use in ALI model.
Vehicle control or DPP4 inhibitors were dosed at 10 ml/kg through oral gavage once or twice a day selected based on PK profile. […] Vehicle control or DPP4 inhibitors were dosed at 2 ml/kg through a 22 g flexible catheter every other day.
DPP4 inhibitors or vehicle control were given to mice starting from one day before LPS injection (day −1).
All animals were sacrificed at day 3.5 after LPS injection. Bronchoalveolar lavage fluid (BALF) was retrieved using standard method. 1 ml 4% formalin was used to inflate the lung, which was subsequently fixed in 4% formalin for 24 hours and preserved in 70% EtOH until histological process.
For readouts, total protein content in BALF was quantified using BCA assay: pulmonary inflammation and damage were assessed using H&E staining.

[2] = tested on: bleomycin-induced lung fibrosis; assay: Bleomycin-induced lung fibrosis model; type: in vivo, mouse; settings: for Dose required in mouse bleomycin / Dose required in mouse bleomycin, multiple of HED: Table 6; for Efficacy in bleomycin-induced lung fibrosis, result in words: oral, high doses
Method: Experimental Methods of Bleomycin Model Bleomycin (Hospira) was used to induce lung fibrosis in mice. Body weight matched (24 gram˜28 gram) male C57BL/6J mice at 10-12 weeks of age were selected to use in bleomycin model. For orally delivered DPP4 inhibitors. compounds were dissolved in PBS resulting in clear solution. […] For intratracheally delivered DPP4 inhibitors, compounds were dissolved in PBS resulting in clear solution. […] 0.5 U/kg Bleomycin or PBS in sham group was intratracheally injection into mice lung at day 0. […] All animals were sacrificed at day 20 after bleomycin injection. Bronchoalveolar lavage fluid (BALF) was retrieved using standard method. 1 ml 4% formalin was used to inflate the lung, which was subsequently fixed in 4% formalin for 24 hours and preserved in 70% EtOH until histological process. For readouts, body weight was measured every day; total protein content in BALF was quantified using BCA assay; pulmonary fibrosis was assessed using Masson's trichrome staining.

[3] = Pharmacokinetic profiling of four gliptins (oral, IT or OP); type: in vivo, mouse; settings: for fraction of oral dose required by pulmonary (IT or OP) delivery for similar lung exposure: oral 100 mg/kg versus IT/OP 20 mg/kg
Method: B. Pharmacokinetic profiling. […] Thus, four of the five […] currently approved by the U.S. FDA were each administered to mice orally (100 mg/kg) or through intratracheal (IT) or oropharyngeal (OP) routes (20 mg/kg).

oral glucose tolerance = settings: rodent models of diabetes; cited from earlier work
[4] = IT pharmacokinetics of dutogliptin (1) and dutogliptin boronate (15); type: in vivo, mouse; settings: mouse, in vivo
Method: Like other […]. Dutogliptin (1) dosed IT in mice with PBS solution quickly cleared in lung (<24h. Table 8A). […] The parent drug dutogliptin was detected in plasma and lung. […] The drug was retained in the lung for over 48 h. The data clearly illustrated the unexpected lung retention ability of boronate prodrug 15.

HbA1c = settings: once-a-day oral doses of 200 mg and 400 mg; cited from earlier work
[5] = in vivo; cited from earlier work
phospholipidosis = assay: Phospholipidosis assay in vitro; settings: FIG. 7A; listed as Linagliptin
[6] = Table 4, promotion of AEC2 proliferation, read-out: AEC2 EC50
[7] = Table 5, read-out: AEC2 proliferation
[8] = 4.4 mg/kg, Lung concentration of dutogliptin, Mean
[9] = 4.4 mg/kg, Lung concentration of dutogliptin, individual animals

| SMILES | AEC2 proliferation, result in words (Primary human AEC2s) | EC50 (Primary human AEC2s; [6]) [nM] | EC50 (Primary human AEC2s; [7]) [nM] | Dose required in mouse ALI ([1]; Table 6) | minimal efficacious dose in LPS lung injury model [1] [mg/kg] | Dose required in mouse bleomycin [2] | Dose required in mouse bleomycin, multiple of HED [2] | Efficacy in bleomycin-induced lung fibrosis, result in words [2] | fraction of oral dose required by pulmonary (IT or OP) delivery for similar lung exposure [3] | dose with efficacy in OGTT model (oral glucose tolerance) [mg/kg] | Dose required in mouse ALI, multiple of HED ([1]; Table 6) | Efficacy in LPS acute lung injury model, result in words ([1]; high doses) | further results |
| --- | --- | --- | --- | --- | --- | --- | --- | --- | --- | --- | --- | --- | --- |
| N#C[C@@H]1C[C@@H]2C[C@@H]2N1C(=O)[C@@H](N)C12CC3C[C@@H](C1)C[C@@](O)(C3)C2 [Cpd 4, (1S,3S,5S)-2-((2S)-2-amino-2-((1S,3R,5S)-3-hydroxyadamantan-1-yl)acetyl)-2-azabicyclo[3.1.0]hexane-3-carbonitrile] | promote AEC2 proliferation to the same magnitude as NVP-728 | 650 | 650 | 50 mg/kg BID (10- | 50 | 50 mg/kg BID | (10-20x HED) | efficacious | one-fifth | 0.5 to 5 |  |  | Efficacy in LPS acute lung injury model, result in words ([1]; high doses, listed as Saxagliptin): efficacious; also recorded: promote repair; also recorded: dramatic improvements |
| O=C(CN[C@@H]1CCNC1)N1CCC[C@H]1B(O)O [Cpd 1, ((R)-1-(((R)-pyrrolidin-3-yl)glycyl)pyrrolidin-2-yl)boronic acid] |  | 280 | 280 |  |  |  |  |  |  |  |  |  | time to clearance from lung [4]: < 24 h; concentration at 3 h ([4]; 4.4 mg/kg, Bronchoalveolar lavage fluids concentration of dutogliptin, Mean): 309 ng/mL; concentration at 3 h ([4]; 4.4 mg/kg, Bronchoalveolar lavage fluids concentration of dutogliptin, individual animals): 400 ng/mL; concentration at 3 h [4, 8]: 6550 ng/g; concentration at 7 h [4, 8]: 4560 ng/g; concentration at 3 h [4, 9]: 6800 ng/g; concentration at 7 h [4, 9]: 3800 ng/g; concentration at 24 h [4, 9]: 3720 ng/g; HbA1c versus placebo (HbA1c): statistically reduced |
| Cc1cc(N2CCN([C@@H]3CN[C@H](C(=O)N4CCSC4)C3)CC2)n(-c2ccccc2)n1 [Cpd 8, ((2S,4S)-4-(4-(3-methyl-1-phenyl-1H-pyrazol-5-yl)piperazin-1-yl)pyrrolidin-2-yl)(thiazolidin-3-yl)methanone] |  |  |  |  |  |  |  |  |  |  |  |  | Adverse Events [5]: 160 mg/day cardiac safety |
| N[C@@H](CC(=O)N1CCn2c(nnc2C(F)(F)F)C1)Cc1cc(F)c(F)cc1F [Sitagliptin] | promote AEC2 proliferation to the same magnitude as NVP-728 |  | 560 | 100 mg/kg BID | 100 | 100 mg/kg mg/kg BID |  | efficacious; also recorded: ameliorative efficacy; also recorded: robust protection | one-fifth | 3 to 30 | (10-20x HED) | efficacious; also recorded: promote repair; also recorded: dramatic improvements | proliferative AEC2s (KI-67 SFPTC double positive cells) ([1]; LPS model): substantial increase; total number of cells (all nuclei) or Ki-67 positive cells in the lung ([1]; LPS model): does not significantly increase; cytokine or BALF levels at early timepoints ([1]; high doses, time course): do not affect; protection in bleomycin model, co-treatment with Nintedanib (Ofev) ([2]; Bliss independence calculations): synergistic protection |
| CC#CCn1c(N2CCC[C@@H](N)C2)nc2c1c(=O)n(Cc1nc(C)c3ccccc3n1)c(=O)n2C [Cpd 5, (R)-8-(3-aminopiperidin-1-yl)-7-(but-2-yn-1-yl)-3-methyl-1-((4-methylquinazolin-2-yl)methyl)-3,7-dihydro-1H-purine-2,6-dione] |  |  |  | 1 mg/kg QD |  | >10 mg/kg qD | (>20x HED) | efficacious | one-fifth |  | model (2x HED) | efficacious | doses with antagonistic activity, repeat dosing ([1]; FIG. 7B): ≥ 2 mg/kg; efficacious dose, repeat dosing ([1]; FIG. 7B): 1 mg/kg; dose toxic in mouse ALI model ([1]; Table 6): 2 mg/kg; lung exposure over the evaluated time frame ([3]; versus other gliptins): considerably higher lung exposure; phospholipidosis induction (phospholipidosis): significant phospholipidosis at low concentrations; also recorded: induces phospholipidosis |
